Key:
[1] = test system: T1, endogenously expressed A1AR in DRG neurons; assay: Live-cell confocal imaging of dorsal root ganglion (DRG) neurons; type: cell-based, rat
T1 construct: supporting the potential of the probe for selectively labeling endogenously expressed A1ARs; from tissue; host or cells: primary dorsal root ganglion neurons from adult male Sprague-Dawley rats
Excerpt: Finally, we evaluated the utility of ligand-directed probe 11 to selectively label and visualize the localization and distribution of endogenously expressed A1AR in a physiologically relevant system. Studies have shown that activation of A1ARs expressed on peripheral nociceptive neurons produces analgesic effects,[14],[17],[71] thereby supporting the clinical potential of targeting the A1ARs for the treatment of neuropathic pain. Dorsal root ganglion (DRG) neurons are sensory cells involved in the transmission of pain and they are reported to express the A1AR[72]−[75] along with its cognate adenosine A2AAR[76]−[78] and A3AR[74],[79] receptor subtypes.
Figure 9 Live-cell confocal imaging of dorsal root ganglion (DRG) neurons labeled with SulfoCy5 by ligand-directed chemistry using probe 11 (250 nM). […] Left-hand side frames represent the SulfoCy5 channel, middle frames represent brightfield and right-hand side frames represent merged images from both channels. Images are representative of images acquired in four independent experiments. Scale bar: 10 μm. […]
plates (Nunc Lab-Tek, Thermo Fischer Scientific), pre-coated with Poly-D-Lysine, at 20,000 cells per well in DMEM/10% FCS. 24 h post seeding, cells were transiently transfected with human SNAP-A1. Transient transfections were carried out following manufacturer’s protocol: used FuGENE (Promega) HD at 3:1 ratio of reagent to cDNA with a total of 300 ng cDNA per well. Transfection solutions were made up in Gibco Opti-MEM (Thermo Fischer Scientific), incubated at RT for 5 min and added as 11 µL per well. Cells were incubated for additional 24 h at 37 OC, 5% CO2. Transient Transfection of NanoLuc-tagged human A 2AAR in HEK293T cell line was carried out as follows: 72 h prior to the experiment cells were removed from a confluent T75 flask and centrifuged. The pellet of cells was resuspended in 10 mL of fresh complete DMEM. […]

[2] = target: T2, NL-hA1AR (Homo sapiens, UniProt P30542); assay: NanoBRET competition ligand-binding assay (CA200645 tracer), NL-hA1AR
T2 construct: expressed in transfected cells
T2 sequence (P30542 1-326): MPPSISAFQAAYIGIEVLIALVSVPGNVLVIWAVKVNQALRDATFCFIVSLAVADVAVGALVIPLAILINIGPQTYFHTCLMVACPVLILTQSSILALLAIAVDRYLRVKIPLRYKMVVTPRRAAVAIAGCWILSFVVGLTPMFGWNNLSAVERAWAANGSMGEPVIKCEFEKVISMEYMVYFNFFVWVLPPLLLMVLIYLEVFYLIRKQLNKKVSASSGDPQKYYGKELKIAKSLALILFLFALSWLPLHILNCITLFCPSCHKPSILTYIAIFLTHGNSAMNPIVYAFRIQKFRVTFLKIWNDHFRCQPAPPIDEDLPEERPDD

[3] = target: T3, NL-hA2AAR (Homo sapiens, UniProt P29274); assay: NanoBRET competition ligand-binding assay (CA200645 tracer), NL-hA2AAR; settings: CA200645 (25 nM) tracer, transient HEK293T, mean ± SEM; read-out: affinity values pKi, NL-hA2AAR (converted)
T3 construct: expressed in transfected cells; host or cells: HEK293T, transient transfection (FuGENE)
T3 sequence (P29274 whole entry): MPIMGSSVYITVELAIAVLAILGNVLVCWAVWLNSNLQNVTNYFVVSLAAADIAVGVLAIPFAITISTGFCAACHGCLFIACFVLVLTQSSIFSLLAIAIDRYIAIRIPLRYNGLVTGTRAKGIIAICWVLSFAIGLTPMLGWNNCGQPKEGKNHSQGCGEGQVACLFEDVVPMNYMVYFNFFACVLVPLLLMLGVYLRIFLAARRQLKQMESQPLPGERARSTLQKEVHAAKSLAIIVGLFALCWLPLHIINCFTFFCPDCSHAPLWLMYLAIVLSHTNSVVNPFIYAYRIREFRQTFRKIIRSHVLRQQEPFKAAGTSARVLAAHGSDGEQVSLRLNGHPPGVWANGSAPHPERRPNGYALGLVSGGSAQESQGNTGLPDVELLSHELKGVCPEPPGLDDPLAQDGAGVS

[4] = target: T4, NL-hA3AR (Homo sapiens, UniProt P0DMS8); assay: cell-based; type: binding; settings: CA200645 (25 nM) tracer, HEK293T cells, mean ± SEM; read-out: affinity values pKi, NL-hA3AR (converted)
T4 construct: expressed in transfected cells
T4 sequence (P0DMS8 1-318): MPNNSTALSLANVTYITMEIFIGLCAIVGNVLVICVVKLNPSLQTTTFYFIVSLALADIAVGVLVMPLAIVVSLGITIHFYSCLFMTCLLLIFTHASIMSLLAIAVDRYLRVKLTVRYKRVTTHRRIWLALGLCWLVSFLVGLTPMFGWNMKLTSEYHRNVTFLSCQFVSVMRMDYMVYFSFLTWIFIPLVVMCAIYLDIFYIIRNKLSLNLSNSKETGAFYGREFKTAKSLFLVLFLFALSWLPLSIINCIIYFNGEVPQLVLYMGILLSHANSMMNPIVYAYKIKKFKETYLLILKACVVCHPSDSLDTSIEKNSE

| SMILES | labeling of live DRG neurons ([1]; 250 nM, 2 h, adult Sprague-Dawley rat DRG) | labeling of DRG neurons after pretreatment with ZM241385 ([1]; 10 μM A2AAR-selective antagonist ZM241385) | fluorescence in DRG neurons after pretreatment with DPCPX ([1]; 10 μM DPCPX pretreatment) | Ki ([2]; CA200645 (25 nM) tracer, HEK293T cells, mean ± SEM, read-out: affinity values pKi, NL-hA1AR (converted)) [µM] | greater affinity for NL-A1AR over NL-A2AAR (competition binding) ([2]; selectivity from pKi values) [fold] | greater affinity for NL-A1AR over NL-A2BAR (competition binding) ([2]; selectivity from pKi values) [fold] | greater affinity for NL-A1AR over NL-A3AR (competition binding) ([2]; selectivity from pKi values) [fold] | Ki [3] [µM] | Ki [4] [µM] |
| --- | --- | --- | --- | --- | --- | --- | --- | --- | --- |
| CCCCn1c(=O)c2[nH]c(C34CCC(C(=O)NCCNC(=O)CCNC(=O)c5ccc(OC(=O)CCCCC[N+]6=C(/C=C/C=C/C=C7/N(C)c8ccc(S(=O)(=O)O)cc8C7(C)C)C(C)(C)c7cc(S(=O)(=O)[O-])ccc76)c(F)c5)(CC3)CC4)nc2n(CCCC)c1=O [Compound 11, 1-(6-(4-((3-((2-(4-(1,3-Dibutyl-2,6-dioxo-2,3,6,7-tetrahydro-1H-purin-8-yl)bicyclo[2.2.2]octane-1-carboxamido)ethyl)amino)-3-oxopropyl)carbamoyl)-2-fluorophenoxy)-6-oxohexyl)-3,3-dimethyl-2-((1E,3E)-5-((E)-1,3,3-trimethyl-5-sulfoindolin-2-ylidene)penta-1,3-dien-1-yl)-3H-indol-1-ium-5-sulfonate] | SulfoCy5-labeling | did not prevent the SulfoCy5 labeling | negligible fluorescence signal |  |  |  |  |  |  |
| CCCCn1c(=O)c2[nH]c(C34CCC(C(=O)NCCNC(=O)CCNC(=O)c5ccc(OC(=O)CCC(=O)NCCOCCOCCNC(=O)O[C@H]6CC/C=C/CCC6)c(F)c5)(CC3)CC4)nc2n(CCCC)c1=O [Compound 12, 4-((3-((2-(4-(1,3-Dibutyl-2,6-dioxo-2,3,6,7-tetrahydro-1H-purin-8-yl)bicyclo[2.2.2]octane-1-carboxamido)ethyl)amino)-3-oxopropyl)carbamoyl)-2-fluorophenyl (R,E)-1-(Cyclooct-4-en-1-yloxy)-1,12-dioxo-5,8-dioxa-2,11-diazapentadecan-15-oate] |  |  |  | 0.0135 | 104 | 61 | 857 | 1.38 | > 10 |

— publication PMC11284787, “Ligand-Directed Labeling of the Adenosine A1 Receptor in Living Cells” (Journal of Medicinal Chemistry, 2024)
